The results in this text go back to patent US10440955B2, “Methods comprising a biocidal polyamine” (Curza Global, LLC, priority 2013, dated 2019).

Counter-ions that a name gives are not always drawn. Like-named read-outs stand apart in the source and are kept apart here. Bounds are passed on as bounds.

In one series the test system is MRSA. Briefly: MIC, 96-well CAMHB, 10^5 to 10^2 CFU/mL in 24 hours. The conditions noted are these: Staphylococcus aureus, MRSA, read-out: MIC (MRSA). The format is cell-based, Staphylococcus aureus. The protocol: (§1) To determine the MIC of polyamine compounds, the protocol described herein was used.
In brief, a 0.5 McFarland of each bacterial isolate was made. A 0.5 McFarland is a measure of turbidity in a liquid sample that contains approximately 1×10^∧8 CFU/mL. The 0.5 McFarland standard was diluted in cation adjusted Mueller Hinton Broth (CAMHB), and 50 μL of broth were added to a well of a 96-well plate. In addition, 50 μL of CAMHB that contained a desired concentration of antimicrobial were also added to the well for a final volume of 100 μL and a final concentration of approximately 5×10^4 CFU/well (which equated to approximately 5×10^5 CFU/mL). Each well contained a desired amount of polyamine compound in order to experimentally determine the MIC. Each 96-well plate was incubated at 37° C. for 24 hours. The contents of each well were plated on tryptic soy agar (TSA). TSA plates were incubated for 37° C. for 24 hours after which the number of CFU were counted and used to calculate the CFU/mL that remained after exposure to varying concentrations of compound. This procedure was repeated n=8 times for each concentration of antimicrobial. […]

The next series concerns A. baumannii. The series is described as above. The format is cell-based, Acinetobacter baumannii. Conditions: Acinetobacter baumannii, read-out: MIC (A. bumannii). The protocol:
as §1
(§2) In brief, a 0.5 McFarland of each bacterial isolate was made. A 0.5 McFarland is a measure of turbidity in a liquid sample that contains approximately 1×10^∧8 CFU/mL. The 0.5 McFarland standard was diluted in cation adjusted Mueller Hinton Broth (CAMHB), and 50 μL of broth were added to a well of a 96-well plate. In addition, 50 μL of CAMHB that contained a desired concentration of antimicrobial were also added to the well for a final volume of 100 μL and a final concentration of approximately 5×10^4 CFU/well (which equated to approximately 5×10^5 CFU/mL). Each well contained a desired amount of polyamine compound in order to experimentally determine the MIC. Each 96-well plate was incubated at 37° C. for 24 hours. The contents of each well were plated on tryptic soy agar (TSA). TSA plates were incubated for 37° C. for 24 hours after which the number of CFU were counted and used to calculate the CFU/mL that remained after exposure to varying concentrations of compound. This procedure was repeated n=8 times for each concentration of antimicrobial.
A 0.5 McFarland of A. baumannii is made. A 0.5 McFarland is a measure of turbidity in a liquid sample that contains approximately 7.5×10^7 CFU/mL. The 0.5 McFarland standard is diluted in CAMHB and 50 μL of broth is added to a well of a 96-well plate. In addition, 50 μL of CAMHB that contains a desired concentration of antimicrobial is added to the well for a final volume of 100 μL and a final concentration of approximately 5×10^4 CFU/well (which equates to approximately 5×10^5 CFU/mL). Each well contains a desired amount of CZ compound in order to experimentally determine the MIC. Each 96-well plate is incubated at 37° C. for 24 hours. The contents of each well is plated on tryptic soy agar (TSA). TSA plates is incubated at 37° C. for 24 hours after which the number of CFUs is counted and used to calculate the CFU/mL that remain after exposure to varying concentrations of compound. This procedure is repeated n=8 times for each concentration of antimicrobial. […]

Another series relates to P. aeruginosa. The description is as above. The format is cell-based, Pseudomonas aeruginosa. The conditions noted are these: Pseudomonas aeruginosa. As to the method:
as §1, §2

For another series, the system named is L-929 cells (ATCC CCL-1). Briefly: Minimal Essential Media (MEM) Elution cytotoxicity test. The format is cell-based. The protocol:
Summary: The Minimal Essential Media (MEM) Elution test was designed to determine the cytotoxicity of extractable substances. The test article was added to cell monolayers and incubated. The cell monolayers were examined and scored based on the degree of cellular destruction.
Acceptance Criteria: The United States Pharmacopeia & National Formulary (USP <87>) states that the test article meets the requirements, or receives a passing score (Pass) if the reactivity grade is not greater than grade 2 or a mild reactivity.
Acceptance criteria were based upon the negative and media controls receiving “0” reactivity grades and positive controls receiving a 3-4 reactivity grades (moderate to severe).
The cell monolayers were examined microscopically. The wells were scored as to the degree of discernable morphological cytotoxicity on a relative scale of 0 to 4:
The results from the three wells were averaged to give a final cytotoxicity score.
[…] This initial concentration was then diluted 1: 2, 1:4, 1:8, and 1:16. Multiple well cell culture plates were seeded with a verified quantity of industry standard L-929 cells (ATCC CCL-1) and incubated until approximately 80% confluent. The test articles and control extracts were added to the cell monolayers in triplicate. The cells were incubated at 37±1° C. with 5±1% CO2 for 48±3 hours.

[1] abbreviates: Table 5, read-out: MIC (P. aeruginosa).
Where [2] appears, read: Table 10A, dilution 1:2 of 25 μg/mL.
The mark [3] stands for this setting: Table 10A, dilution 1:4 of 25 μg/mL.
Setting [4] is: Table 10A, dilution 1:8 of 25 μg/mL.
The mark [5] stands for this setting: Table 10A, dilution 1:16 of 25 μg/mL.
[6] abbreviates: Table 11A, dilution 1:2 of 25 μg/mL.
The mark [7] stands for this setting: Table 11A, dilution 1:4 of 25 μg/mL.
Where [8] appears, read: Table 11A, dilution 1:8 of 25 μg/mL.
Where [9] appears, read: Table 11A, dilution 1:16 of 25 μg/mL.

Broadly, the MIC is the least concentration at which growth counts as inhibited. `NCCCCCCCCCCCCNCc1cccc(CNCCCCCCCCCCCCN)c1` [CZ-21, N^1,N^1′-(1,3-phenylenebis(methylene))bis(dodecane-1,12-diamine), hydrochloride salt]: the MIC in the series on MRSA was less than 50 µM; in the series with A. baumannii, more than 100 µM.

With `NCCCNCCCNCc1cc(CNCCCNCCCN)cc(-c2c(CNCCCNCCCN)cccc2CNCCCNCCCN)c1` [CZ-60], the minimal inhibitory concentration (MIC) is more than 100 µM in the series on P. aeruginosa (setting [1]), less than 50 µM in the series with MRSA (Table 5) and more than 100 µM in the series with A. baumannii (Table 5).

With `NCCCNCCCNCc1cc(CNCCCNCCCN)cc(CNCCCNCCCN)c1` [CZ-55], the results for the MIC in the series on P. aeruginosa (setting [1]), with MRSA (Table 5) and with A. baumannii (Table 5) were less than 50 µM, less than 50 µM and more than 100 µM, respectively.

As to `CCCCCCCCNCCCNCCCNCc1cc(CNCCCNCCCNCCCCCCCC)cc(OCC2CCCCC2)c1` [CZ-103, N^1,N^1′-((5-(cyclohexylmethoxy)-1,3-phenylene)bis(methylene))bis(N^3-(3-(octylamino)propyl)propane-1,3-diamine)], the MIC in the series on P. aeruginosa (setting [1]), with MRSA (Table 5) and with A. baumannii (Table 5) was less than 50 µM throughout.

Take `Cc1ccccc1-c1cc(CNCCCNCCCN)cc(CNCCCNCCCN)c1` [CZ-63, N^1,N^1′-((2′-methyl-[1,1′-biphenyl]-3,5-diyl)bis(methylene))bis(N^3-(3-aminopropyl)propane-1,3-diamine), hydrochloride salt]: in the series with A. baumannii, the minimum inhibitory concentration (MIC) is less than 50 µM.

On to `CCCCNCCCNCCCNCc1cc(CNCCCNCCCNCCCC)cc(-c2ccccc2)c1` [CZ-83, N^1,N^1′-([1,1′-biphenyl]-3,5-diylbis(methylene))bis(N^3-(3-(butylamino)propyl)propane-1,3-diamine), hydrochloride salt], for which the MIC in the series on P. aeruginosa (read-out: MIC (P. aeruginosa), Table 5) was less than 50 µM; with MRSA, less than 50 µM; in the series with A. baumannii it was less than 50 µM.

`NCCCNCCCNCc1cccc(-c2cc(CNCCCNCCCN)cc(CNCCCNCCCN)c2)c1` [CZ-62, N^1,N^1′,N^1″-([1,1′-biphenyl]-3,3′,5-triyltris(methylene))tris(N^3-(3-aminopropyl)propane-1,3-diamine), hydrochloride salt]: the “Results Pass/Fail” value in the series with L-929 cells (ATCC CCL-1) (Table 10A, 25 μg/mL) is on record as “Fail (a numerical grade greater than 2 is considered a cytotoxic effect, or a failing score (Fail))”; in the series on L-929 cells (ATCC CCL-1) (setting [2]), “Fail (a numerical grade greater than 2 is considered a cytotoxic effect, or a failing score (Fail))”; in the series with L-929 cells (ATCC CCL-1) (setting [3]), “Fail (a numerical grade greater than 2 is considered a cytotoxic effect, or a failing score (Fail))”; in the series on L-929 cells (ATCC CCL-1) (setting [4]), “Pass (receives a passing score (Pass) if the reactivity grade is not greater than grade 2 or a mild reactivity)”; in the series with L-929 cells (ATCC CCL-1) (setting [5]), “Pass (receives a passing score (Pass) if the reactivity grade is not greater than grade 2 or a mild reactivity)”. Besides, in the series on A. baumannii, the MIC is less than 50 µM.

As for `NCCCNCCCNCCCNCc1cc(CNCCCNCCCNCCCN)cc(-c2ccccc2)c1` [CZ-73, N^1,N^1′-([1,1′-biphenyl]-3,5-diylbis(methylene))bis(N^3-(3-((3-aminopropyl)amino)propyl)propane-1,3-diamine), hydrochloride salt], the MIC in the series on A. baumannii is 50 to 100 µM.

Take `NCCCNCCCNCc1ccc(-c2cc(CNCCCNCCCN)cc(CNCCCNCCCN)c2)cc1` [CZ-65, N^1,N^1′,N^1″-([1,1′-biphenyl]-3,4′,5-triyltris(methylene))tris(N^3-(3-aminopropyl)propane-1,3-diamine), hydrochloride salt]: the “Results Pass/Fail” value with L-929 cells (ATCC CCL-1) (Table 10A, 25 μg/mL) is listed as “Fail (a numerical grade greater than 2 is considered a cytotoxic effect, or a failing score (Fail))”; with L-929 cells (ATCC CCL-1) (setting [2]) it was “Fail (a numerical grade greater than 2 is considered a cytotoxic effect, or a failing score (Fail))”; with L-929 cells (ATCC CCL-1) (setting [3]), “Pass (receives a passing score (Pass) if the reactivity grade is not greater than grade 2 or a mild reactivity)”; in the series on L-929 cells (ATCC CCL-1) (setting [4]), “Pass (receives a passing score (Pass) if the reactivity grade is not greater than grade 2 or a mild reactivity)”; with L-929 cells (ATCC CCL-1) (setting [5]) it was “Pass (receives a passing score (Pass) if the reactivity grade is not greater than grade 2 or a mild reactivity)”. In addition, in the series with A. baumannii, the MIC is less than 50 µM.

As for `c1ccc(-c2cc(CNCCCNCCCNCC3CCCCC3)cc(CNCCCNCCCNCC3CCCCC3)c2)cc1` [CZ-96, N^1,N^1′-([1,1′-biphenyl]-3,5-diylbis(methylene))bis(N^3-(3-((cyclohexylmethyl)amino)propyl)propane-1,3-diamine)], the MIC in the series on P. aeruginosa (setting [1]) and in the series with MRSA (Table 5) was less than 50 µM in each case. The “Results Pass/Fail” value in the series on L-929 cells (ATCC CCL-1) (Table 11A, 25 μg/mL) is on record as “Pass (receives a passing score (Pass) if the reactivity grade is not greater than grade 2 or a mild reactivity)”; in the series on L-929 cells (ATCC CCL-1) (setting [6]), “Pass (receives a passing score (Pass) if the reactivity grade is not greater than grade 2 or a mild reactivity)”; in the series with L-929 cells (ATCC CCL-1) (setting [7]), “Pass (receives a passing score (Pass) if the reactivity grade is not greater than grade 2 or a mild reactivity)”; in the series on L-929 cells (ATCC CCL-1) (setting [8]), “Pass (receives a passing score (Pass) if the reactivity grade is not greater than grade 2 or a mild reactivity)”; with L-929 cells (ATCC CCL-1) (setting [9]), “Pass (receives a passing score (Pass) if the reactivity grade is not greater than grade 2 or a mild reactivity)”.

As to `CCCCCCCCNCCCNCCCNCc1cc(CNCCCNCCCNCCCCCCCC)cc(-c2ccccc2)c1` [CZ-92, N^1,N^1′-([1,1′-biphenyl]-3,5-diylbis(methylene))bis(N^3-(3-(octylamino)propyl)-propane-1,3-diamine)], the MIC in the series with P. aeruginosa (setting [1]) and with MRSA (Table 5) was less than 50 µM throughout. The “Results Pass/Fail” value with L-929 cells (ATCC CCL-1) (Table 11A, 25 μg/mL) was “Fail (a numerical grade greater than 2 is considered a cytotoxic effect, or a failing score (Fail))”; with L-929 cells (ATCC CCL-1) (setting [6]), “Fail (a numerical grade greater than 2 is considered a cytotoxic effect, or a failing score (Fail))”; in the series on L-929 cells (ATCC CCL-1) (setting [7]) it was “Fail (a numerical grade greater than 2 is considered a cytotoxic effect, or a failing score (Fail))”; with L-929 cells (ATCC CCL-1) (setting [8]) it was “Fail (a numerical grade greater than 2 is considered a cytotoxic effect, or a failing score (Fail))”; in the series with L-929 cells (ATCC CCL-1) (setting [9]), “Pass (receives a passing score (Pass) if the reactivity grade is not greater than grade 2 or a mild reactivity)”.

As for `NCCCNCCCNCc1cc(CNCCCNCCCN)cc(-c2ccc3c(c2)OCO3)c1` [CZ-61, N^1,N^1′-((5-(benzo[d][1,3]dioxol-5-yl)-1,3-phenylene)bis(methylene))bis(N^3-(3-ammoniopropyl)propane-1,3-diaminium) chloride], the minimal inhibitory concentration (MIC) with A. baumannii is less than 50 µM.
